Test results published in US9243225B2, “Methods of obtaining cell populations enriched with desired cells” (HADASIT MEDICAL RESEARCH SERVICES & DEVELOPMENT LIMITED, priority 2010, dated 2016).

Tests used:
[1] = tested on: tumor-forming cells in transplanted hESC-derived cell preparations; assay: Transplantation of paclitaxel-treated differentiated hESC into 6-OH dopamine-lesioned (Parkinsonian) rats; assay type: in vivo, rat
Experimental: 6-Hydroxydopamine (8 μg/rat) was stereotaxically injected (in a 4 μL solution) into the right substantia nigra of male Sprague-Dawley rats weighing 250-280 g; coordinates of injection: P=4.8, L=1.7, H=−8.6 from bregma. Fourteen days after 6-hydroxydopamine injection, rats were selected for transplantation if they had >350 rotations per hour after s.c. injection of apomorphine ([…]) (apomorphine being injected after 14 days) and, if 2 days later (after apomorphine injection) they also had >360 (mean 520±38) rotations per hour after i.p. injection of D-amphetamine (4 mg/kg).
Two to five days later (after the D-amphetamine injection), differentiated hESC that were induced according to the above specified protocols, either paclitaxel-treated or control-treated (DMSO), were detached with collagenase and were transplanted, 400,000 cells in 12 μL/animal along two tracts per striatum (coordinates: antero-medial tract, A=1, L=2, H=−7.5 to −4; posterio-lateral tract, A−P=0, L=3.5, H=−7.5 to −4.5). All rats received daily i.p. injections of 10 mg cyclosporine A per kg (Sandimmune; Novartis, Basel, Switzerland).
Rats were euthanized by overdose of pentobarbital and perfused with 4% paraformaldehyde saline. Serial 8 μm coronal frozen sections were prepared. […]

[2] = tested on: hES1-derived mixed culture of neurons, neural precursors/progenitors (NPs) and undifferentiated cells; assay: Paclitaxel treatment of hESC-derived differentiating neural cultures (morphology, immunostaining); assay type: cell-based, human
Experimental: hES1 colonies grown on HFF feeders in DMEM supplemented with knockout (KO) serum replacement, PenStrep, non-essential amino-acids and glutamine (Invitrogen, USA), were enzymatically detached by collagenase. Intact colonies were transferred to non-adhesive culture plates to form neurospheres in NSC medium (DMEM-F12 medium, N2, B27, PenStrep and Glutamine) supplemented with noggin (Peprotech Asia, Rehovot, Israel) and 20 ng/ml bFGF. Spheres were grown for 3-5 weeks in suspension, collected, triturated and plated on 10 μg laminin/poly-D-lysine-coated coverslips in NSC medium supplemented with FGF8 and SHH for 6-8-days. At this stage, cells were treated with the appropriate concentrations of paclitaxel for 18-24 hours. Paclitaxel was then removed and cells were allowed to recuperate and continue with the differentiation process for additional 6-8 days in NSC medium with BDNF, GDNF, TGFβ3, NT4, cAMP, ascorbic acid.
Alternatively, cells at the end of the differentiation process—the cells are grown as spheres in suspension for 3-5 weeks and 2 more weeks as adherent culture: 1 week FGF8/SHH+1 week factors) are subjected to paclitaxel treatment.
Paclitaxel was added to cells at 2 ranges of concentrations of 0.2-20 nM and 100-500 nM. Cells are incubated at 37° C., in 5% CO2, 5% O2. Incubation times vary between 2 hours and 48 hours.

SMILES: CC(=O)O[C@H]1C(=O)[C@@]2(C)[C@H]([C@H](OC(=O)c3ccccc3)[C@]3(O)C[C@H](OC(=O)[C@H](O)[C@@H](NC(=O)c4ccccc4)c4ccccc4)C(C)=C1C3(C)C)[C@]1(OC(C)=O)CO[C@@H]1C[C@@H]2O [paclitaxel]
- tumor development after transplantation of treated cells ([1]; cell preparations treated with 20-50 nM paclitaxel, 9 animals, 5-8 weeks post transplantation, all 6 controls with untreated cells developed large tumors): none developed tumors
- tyrosine hydroxylase (dopaminergic marker) expression of grafted paclitaxel-treated cells ([1]; grafted cells marked by human nuclear antigen in rat striatum, FIGS. 4A-4C): express tyrosine hydroxylase
- effect on mature cells with typical neuronal morphology ([2]; after treatment with paclitaxel, FIG. 1C): unaffected by the treatment
- effect on undifferentiated cells and early neural progenitors that form rosette structures ([2]; after treatment with paclitaxel, FIGS. 1A-1C): undergo apoptosis
- β-III tubulin expressing cells (neuronal marker) in culture ([2]; mixed culture of neurons and NPs after paclitaxel treatment, FIG. 2C): enriched for β-III tubulin expressing cells
- nestin-positive cells (NP marker) in culture ([2]; mixed culture of neurons and NPs after paclitaxel treatment, FIG. 2D): reduced number of nestin-positive cells
